Source: article PMC5201116, “Bioactive Flavonoids and Catechols as Hif1 and Nrf2 Protein Stabilizers - Implications for Parkinson’s Disease” (Aging and Disease, 2016)

What was measured:
[1] = system: C57Bl6 mice, MPTP model of Parkinson's disease; assay: Stereological counts of Nissl- and TH-positive neurons in SNpc, MPTP model; type: in vivo, mouse; settings: NDGA 100mg/kg/day, Fig. 7
Protocol: Acute MPTP-intoxication paradigm was used to test the neuroprotective effects of NDGA using male C57Bl6 mice. In this protocol, 10-week-old C57Bl6 mice (n = 8-10 per group) were divided into four different groups consisting of 1) a control group treated with saline alone; 2) a group treated with MPTP alone; 3) a group treated with NDGA alone and; 4) group treated with NDGA in combination with MPTP. NDGA was dissolved in 1:4 ethanol:neobee oil (a derivative of coconut oil). MPTP 10 mg/kg free base was administered intraperitoneally three times a day every two hours. Animals with NDGA in combination with MPTP were administered NDGA by oral gavage with 50 and 100mg/kg/day body weight of the drug in 100 microliter volume once a day for 4 days before MPTP and once a day for 3 days after MPTP. On the day of MPTP NDGA was administered to mice 2 hours before the initiation of MPTP. Animals belonging to MPTP and control groups received the vehicle (ethanol:neobee oil, 1:4) whereas the drug alone group received respective doses of NDGA at the same frequency. All animals were sacrificed on the 7th day after MPTP. […]

[2] = system: C57Bl6 mice, MPTP model of Parkinson's disease; assay: Acute MPTP mouse model: striatal dopamine and metabolites by HPLC; type: in vivo
Protocol: Acute MPTP-intoxication paradigm was used to test the neuroprotective effects of NDGA using male C57Bl6 mice. In this protocol, 10-week-old C57Bl6 mice (n = 8-10 per group) were divided into four different groups consisting of 1) a control group treated with saline alone; 2) a group treated with MPTP alone; 3) a group treated with NDGA alone and; 4) group treated with NDGA in combination with MPTP. NDGA was dissolved in 1:4 ethanol:neobee oil (a derivative of coconut oil). MPTP 10 mg/kg free base was administered intraperitoneally three times a day every two hours. Animals with NDGA in combination with MPTP were administered NDGA by oral gavage with 50 and 100mg/kg/day body weight of the drug in 100 microliter volume once a day for 4 days before MPTP and once a day for 3 days after MPTP. On the day of MPTP NDGA was administered to mice 2 hours before the initiation of MPTP. Animals belonging to MPTP and control groups received the vehicle (ethanol:neobee oil, 1:4) whereas the drug alone group received respective doses of NDGA at the same frequency. All animals were sacrificed on the 7th day after MPTP.
Striatal levels of dopamine (DA) and its metabolites 3, 4-dihydroxyphenylacetic acid (DOPAC), and homovanillic acid (HVA) were measured after sonication and centrifugation in chilled 0.1 M perchloric acid (PCA, 100 µl/mg tissue) as previously described. Briefly, 15 µl supernatant was isocratically eluted through an 80 x 4.6 mm C18 column (ESA, Inc. Chelmsford, MA) with a mobile phase containing 0.1 M LiH2PO4, 0.85 mM 1-octanesulfonic acid and 10% (v/v) methanol and detected by a 2-channel Coulochem II electrochemical detector (ESA, Inc. Chelmsford, MA). Concentrations of dopamine, DOPAC and HVA are expressed as ng per mg protein. The protein concentrations of tissue homogenates were measured according to BCA assay (Pierce Biotech). For MPP+ measurement NDGA was administered at a dose of 100mg/kg/day once daily for four days followed by a dose on the 5th day 30 minutes before MPTP (30mg/kg free base). Striatal tissues were sonicated and centrifuged in 0.1 M PCA and an aliquot of supernatant was injected onto a Brownlee aquapore x 03-224 cation exchange column (Rainin, Woburn, MA). Samples were eluted isocratically with 20 mM boric acid-sodium borate buffer, pH 7.75, containing 3 mM tetrabutylammonium hydrogen sulfate, 0.25 mM 1-heptanesulfonic acid and 10% isopropanol. MPP^+ levels were detected with a fluorescence detector set by excitation at 295 nm and emission at 375nm.

[3] = Iron binding constant, calcein displacement assay; type: physicochemical; settings: calcein displacement
From the text: Calcein displacement assay in the presence of varied concentrations of flavonoids and catechols has been used. Calcein release from its complex with iron was monitored by fluorescence as described in [26].

HO-1 mRNA in brain = assay: Brain HO-1 mRNA levels after NDGA; type: in vivo, mouse; settings: 6 hours after last dose, data not shown
Protocol: We used an acute paradigm of MPTP administration (10 mg MPTP/kg X 3, every two hours), known to cause about a 50% loss of striatal dopamine and its metabolites DOPAC and HVA and significant loss of tyrosine hydroxylase (TH) immunopositive neurons in the substantia nigra pars compacta (SNpc) on the 7th day. […] The doses that were used to determine the efficacy of NDGA against MPTP were determined by evaluation of brain HO-1 levels. Both 50 and 100 mg/kg administered twice a day induced a dose dependent increase in HO-1 mRNA levels at 6 hours after last dose of NDGA.

[4] = NDGA+MPTP group, NDGA 100mg/kg/day oral, 7th day after MPTP

CC(Cc1ccc(O)c(O)c1)C(C)Cc1ccc(O)c(O)c1 (stereo not drawn) [compound 28, 4,4'-(2,3-dimethylbutane-1,4-diyl)dibenzene-1,2-diol]
MPTP-induced loss of total (Nissl-positive) and TH-immunopositive neurons in SNpc [1]: significant attenuation
protection against MPTP-induced loss of striatal dopamine, DOPAC and HVA ([2]; NDGA 50mg/kg/day): not
protection against MPTP-induced loss of striatal dopamine, DOPAC and HVA ([2]; NDGA 100mg/kg/day): protected
Striatal DOPAC ([2]; NDGA alone group, oral gavage): 7.59 ± 1.35 ng/mg protein
Striatal DOPAMINE ([2]; NDGA alone group, oral gavage): 88.4 ± 6.2 ng/mg protein
Striatal HVA ([2]; NDGA alone group, oral gavage): 7.5 ± 1.66 ng/mg protein
Striatal DOPAC [2, 4]: 6.04 ± 1.14 ng/mg protein
Striatal DOPAMINE [2, 4]: 55.3 ± 5.7 ng/mg protein
Striatal HVA [2, 4]: 7.4 ± 0.96 ng/mg protein
Iron complex Diss. Const [3]: 2.5 ± 0.3 µM
increase in HO-1 mRNA levels (HO-1 mRNA in brain; 50 mg/kg twice a day): 1.2 fold
increase in HO-1 mRNA levels (HO-1 mRNA in brain; 100 mg/kg twice a day): 6 fold
